This data set is described as follows: Metabolic stability and enzyme kinetics in liver S9 (conversion to PF-00835231). The settings on record: for PF-00835231 formation rate: Human Liver S9 0.03 mg/ml, 20 min, R1-R3; for Km at 20 min / microsomal CLint: human.

We go through 1 compound from PMC8523698, “Preclinical characterization of an intravenous coronavirus 3CL protease inhibitor for the potential treatment of COVID19” (Nature Communications, 2021).

Several values for one entry are separate records, joined by “and”; a condition that tells them apart may be missing. Equal values may be shown once.

As a reminder, the Vmax is the rate approached at saturating substrate. One may read the Km as the substrate concentration at which the rate is half of its maximum. The microsomal CLint is the rate of metabolic loss divided by the concentration. Regarding `COc1cccc2[nH]c(C(=O)N[C@@H](CC(C)C)C(=O)N[C@@H](C[C@@H]3CCNC3=O)C(=O)COP(=O)(O)O)cc12` [PF-07304814], the PF-00835231 formation rate is 100 pmol/min/mg and 108 pmol/min/mg and 109 pmol/min/mg (substrate 0.207 µM); 923 pmol/min/mg and 978 pmol/min/mg and 975 pmol/min/mg (substrate 3.81 µM); 2081 pmol/min/mg and 1997 pmol/min/mg and 1964 pmol/min/mg (substrate 16.3 µM); 2700 pmol/min/mg and 2483 pmol/min/mg and 2383 pmol/min/mg (substrate 33.8 µM); 3450 pmol/min/mg and 3533 pmol/min/mg and 2817 pmol/min/mg (substrate 70.0 µM). For the same compound, the Vmax (Human liver S9, best-fit, Two enzyme: MM + Unsaturable) was 2313 pmol/min/mg and the Vmax (Human, best-fit, Two enzyme: MM + Unsaturable) amounted to 2313 pmol/min/mg. For the same compound, the Km at 20 min by setting is: (human liver S9, pH 7.5, KM) 6.23 µM; (human liver S9, pH 7.5, Km, Human liver S9, best-fit, Two enzyme: MM + Unsaturable) 6.23 µM. In addition, the microsomal CLint by setting is: (liver S9, pH 7.5, CLint total, Human liver S9, CLint total = (vmax / KM) + CL) 381 µL/min/mg; (liver S9, pH 7.5, CLint total, Human, (vmax / KM) + CL) 381 µL/min/mg; (liver S9, pH 7.5, CLint,2, low affinity kinetic component) 9.96 µL/min/mg; (liver S9, pH 7.5, CLint,app) 381 µL/min/mg; (liver S9, pH 7.5, CLintu (unbound CLint)) 428 µL/min/mg; (liver S9, pH 7.5, Human liver S9 Clint, clearance input) 381 µL/min/mg.
